# Assay results reported in US6638973B2, “Taxane formulations” (FSU Research Foundation, Inc., priority 2000, dated 2003).
# Tested on: HCT116 cells
# Experiment: In vitro cytotoxicity measured by the cell colony formation assay
# Format: cell-based
# Settings: HCT116 cells, 72 h incubation with drug, colonies counted after 7 days; ID50 = drug concentration producing 50% inhibition of colony formation; read-out: IN VITRO ID 50 (nm) HCT116
# How it was run: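 Colony-forming survival was scored 7 days after a 72 h, 37 °C compound exposure followed by washout into fresh medium.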
row,SMILES,IC50 [nM]
1,C/C=C/C(=O)N[C@@H](c1ccco1)[C@@H](O)C(=O)O[C@H]1C[C@@]2(O)[C@@H](OC(=O)c3ccccc3)C3[C@](C)(C(=O)[C@H](O)C(=C1C)C2(C)C)[C@@H](OC(=O)OC)C[C@H]1OC[C@@]31OC(C)=O (some centres unmarked) [Compound 4744],< 1
2,C/C=C/C(=O)N[C@@H](c1cccs1)[C@@H](O)C(=O)O[C@H]1C[C@@]2(O)[C@@H](OC(=O)c3ccccc3)C3[C@](C)(C(=O)[C@H](O)C(=C1C)C2(C)C)[C@@H](OC(=O)OC)C[C@H]1OC[C@@]31OC(C)=O (some centres unmarked) [Compound 4766],< 1
3,C/C=C/C(=O)N[C@@H](c1ccco1)[C@@H](O)C(=O)O[C@H]1C[C@@]2(O)[C@@H](OC(=O)c3ccccc3)C3[C@](C)(C(=O)[C@H](O)C(=C1C)C2(C)C)[C@@H](OC(=O)OCC)C[C@H]1OC[C@@]31OC(C)=O (some centres unmarked) [Compound 4818],< 1
4,CCOC(=O)O[C@H]1C(=O)[C@@]2(C)C([C@H](OC(=O)c3ccccc3)[C@]3(O)C[C@H](OC(=O)[C@H](O)[C@@H](NC(=O)OCC(C)C)C4CC4)C(C)=C1C3(C)C)[C@]1(OC(C)=O)CO[C@@H]1C[C@@H]2O (some centres unmarked) [Compound 4844],< 1
5,C/C=C/C(=O)N[C@@H](c1cccs1)[C@@H](O)C(=O)O[C@H]1C[C@@]2(O)[C@@H](OC(=O)c3ccccc3)C3[C@](C)(C(=O)[C@H](O)C(=C1C)C2(C)C)[C@@H](OC(=O)OCC)C[C@H]1OC[C@@]31OC(C)=O (some centres unmarked) [Compound 4855],< 1
6,C/C=C/C(=O)N[C@@H](c1ccoc1)[C@@H](O)C(=O)O[C@H]1C[C@@]2(O)[C@@H](OC(=O)c3ccccc3)C3[C@](C)(C(=O)[C@H](O)C(=C1C)C2(C)C)[C@@H](OC(=O)OC)C[C@H]1OC[C@@]31OC(C)=O (some centres unmarked) [Compound 4877],< 1

# Same assay, conditions: HCT116 colony formation; 72 h drug incubation, colonies counted after 7 days; Example 5, C-7 ester/C-10 hydroxy taxanes; read-out: IN VITRO ID 50 (nm) HCT116
row,SMILES,IC50 [nM]
1,C/C=C/C(=O)N[C@@H](c1ccco1)[C@@H](O)C(=O)O[C@H]1C[C@@]2(O)[C@@H](OC(=O)c3ccccc3)C3[C@](C)(C(=O)[C@H](O)C(=C1C)C2(C)C)[C@@H](OC(=O)CCC)C[C@H]1OC[C@@]31OC(C)=O (some centres unmarked) [Compound 4737],< 1
2,C/C=C/C(=O)N[C@@H](c1cccs1)[C@@H](O)C(=O)O[C@H]1C[C@@]2(O)[C@@H](OC(=O)c3ccccc3)C3[C@](C)(C(=O)[C@H](O)C(=C1C)C2(C)C)[C@@H](OC(=O)CCC)C[C@H]1OC[C@@]31OC(C)=O (some centres unmarked) [Compound 4757],< 1
3,CCC(=O)O[C@H]1C[C@H]2OC[C@@]2(OC(C)=O)C2[C@H](OC(=O)c3ccccc3)[C@]3(O)C[C@H](OC(=O)[C@H](O)[C@@H](NC(=O)OCC(C)C)c4ccoc4)C(C)=C([C@@H](O)C(=O)[C@@]21C)C3(C)C (some centres unmarked) [Compound 4787],< 10
4,CCCC(=O)O[C@H]1C[C@H]2OC[C@@]2(OC(C)=O)C2[C@H](OC(=O)c3ccccc3)[C@]3(O)C[C@H](OC(=O)[C@H](O)[C@@H](NC(=O)OCC(C)C)c4ccoc4)C(C)=C([C@@H](O)C(=O)[C@@]21C)C3(C)C (some centres unmarked) [Compound 4828],< 10

# Same assay, conditions: HCT116 colony formation; 72 h drug incubation, colonies counted after 7 days; Example 10, C-10 ester/C-7 hydroxy taxanes; read-out: IN VITRO ID 50 (nm) HCT116
row,SMILES,IC50 [nM]
1,CC(=O)O[C@@]12CO[C@@H]1C[C@H](O)[C@@]1(C)C(=O)[C@H](OC(=O)C3CC3)C3=C(C)[C@@H](OC(=O)[C@H](O)[C@H](C=C(C)C)NC(=O)OCC(C)C)C[C@@](O)([C@@H](OC(=O)c4ccccc4)C12)C3(C)C (some centres unmarked) [Compound 4720],< 10
2,CCC(=O)O[C@H]1C(=O)[C@@]2(C)C([C@H](OC(=O)c3ccccc3)[C@]3(O)C[C@H](OC(=O)[C@H](O)[C@@H](NC(=O)OCC(C)C)C4CC4)C(C)=C1C3(C)C)[C@]1(OC(C)=O)CO[C@@H]1C[C@@H]2O (some centres unmarked) [Compound 4799],< 1
3,CCCC(=O)O[C@H]1C(=O)[C@@]2(C)C([C@H](OC(=O)c3ccccc3)[C@]3(O)C[C@H](OC(=O)[C@H](O)[C@@H](NC(=O)OCC(C)C)C4CC4)C(C)=C1C3(C)C)[C@]1(OC(C)=O)CO[C@@H]1C[C@@H]2O (some centres unmarked) [Compound 4808],< 10
4,CCCC(=O)O[C@H]1C(=O)[C@@]2(C)C([C@H](OC(=O)c3ccccc3)[C@]3(O)C[C@H](OC(=O)[C@H](O)[C@@H](NC(=O)OCC(C)C)c4ccsc4)C(C)=C1C3(C)C)[C@]1(OC(C)=O)CO[C@@H]1C[C@@H]2O (some centres unmarked) [Compound 4834],< 10
